Entries after “also recorded” stand apart in the source; their conditions may differ.
How the values were obtained:
[1] = Standard laboratory biodegradation tests (OECD 301A, 301B, 301D, 301E, 306); conditions: 301E and OECD 306 seawater test
Excerpt: The above Log K values show the dramatically greater chelation strength of EDTA as compared to HEIDA. One would expect that the chelating agent with the greatest metal ion affinity (in this case, EDTA) would have the better performance for removing the soil containing Ca, Mg, and Fe3+.

[2] = ASTM D5343 cleaning performance of ceramic tile cleaners (number of strokes); conditions: ASTM D5343 tile cleaning test
Experimental: Cleaning formulations are prepared to contain the following (by weight): 2.62% Sodium dodecylbenzene sulfonic acid, 2.62% cocoamidopropyl betaine (Lonzaine C), 2.62% ethylene glycol butyl ether (Dowanol EB™), 3.2% of the chelant salt (except for the blank, which contains all components except the chelant), and the balance water. Thus the formulation of Example 31 contains 3.2% by weight of the chelant salt (in this case, K2HEIDA), and so on for Examples 32 and 33 which evaluate (K)1.8(Na)0.2(HEIDA), and (K)1.6(Na)0.4(HEIDA), respectively, as well as Comparative Examples 27-30 which evaluate the formulations containing Na4EDTA, Na2HEIDA, K4EDTA, and (K)1.0(Na)1.0(HEIDA), respectively.
The cleaning ability of these compositions is determined according to ASTM D5343, “Standard Guide for Evaluating Cleaning Performance of Ceramic Tile Cleaners:” using soiled white bathroom tiles as directed by the procedure. […] 10 ml of the cleaning formulation is placed on the face of a pre-moistened sponge, then the number of strokes (under 454 grams of force) are determined to achieve soil removal of 90% or greater. The number of strokes required by each formulation to obtain 90% or greater soil removal is recorded for each cleaning formulation.

[3] = CSMA DCC-16 scrubber test for removal of lime soap (panel rating); conditions: panel scale 0 to 5; 1 gram cleaning solution, 30 seconds, 6 cycles at 454 grams of force; formulation with 3.2% chelant salt
Excerpt: Black ceramic tiles (meeting ANSI standard A371.1, 4¼″ square) are soiled as directed by the procedure described in […] Specialties Manufacturers Association DCC-16, (CSMA Detergents Division Test Methods Compendium—Third Edition—May 1995—Pages I-51 to I-55) “Guidelines for Evaluating the Efficacy of Bathroom Cleaners, Part 2: Scrubber Test for Measuring the Removal of Lime Soap.”. The principal metals present in the soil mixture used in the tile cleaning test are calcium, followed by magnesium, present as their highly insoluble stearate salts (soap scum). Cleaning solution formulations are prepared as described in the previous example. To the surface of the soiled tiles on the scrubbing apparatus, 1 gram of cleaning solution is sprayed and allowed to stand for 30 seconds. The tile is then scrubbed with a pre-moistened sponge with 454 grams of force for 6 cycles (total of 12 passes over the soiled tile). The tile is then rinsed with water and allowed to air dry. Panelists judge the cleanliness of the tiles on a scale from 0 to 5 (with “0” for completely dirty and “5” for completely cleaned), and the results of the observations are averaged.

[4] = overall constant, log of [metal complex]/([free metal][free ligand]); cited from earlier work
[5] = overall constant, log of [metal complex]/([free metal][free ligand]); cited from earlier work; remark: listed apart in the source
[6] = overall constant, log of [metal complex]/([free metal][free ligand]); cited from earlier work; remark: listed apart in the source
[7] = Calcium oxalate titration; format: physicochemical; conditions: pH about 11.6; titrated with 0.5 M CaCl2 to first faint permanent turbidity
Excerpt: The primary metal present in the standard ASTM soil is calcium. One method of estimating the calcium control performance of a chelating agent is to perform a calcium titration that utilizes the tendency to produce a calcium precipitate when a given amount of chelant can no longer control any additional added calcium, thus producing a visible precipitate. Using such a titration test, one normally deems the best chelants for calcium control as those that accept the most calcium before the precipitate appears per a given unit of chelating agent. A standard titration test often employed to determine a chelant's calcium control effectiveness is the calcium oxalate titration. In this titration, standard calcium chloride titrant is added to a measured amount of chelating agent and the onset of calcium oxalate precipitate (detected as the first permanent turbidity that forms) defines the amount of calcium that can be controlled. Strong chelants accept a mole-for-mole amount of calcium, while weaker chelants will accept less than a mole-for-mole amount of calcium in this titration. […]

Row | biodegradability [1] | Structure (SMILES) | cleaning performance compared in words [2] | Cleaning rating (higher is better) [3] | Log K Fe3+ [4] | Log K Ca [5] | Log K Mg [6] | % Molar Chelation of calcium (max. = 100) [7] [%]
1 | readily biodegradable | O=C([O-])CN(CCO)CC(=O)[O-].[K+].[K+] [Example K2HEIDA] | equal performance; also recorded: performs equally as well as K4EDTA | 4.67 (+/−0.26) |  |  |  | 
2 |  | O=C(O)CN(CCN(CC(=O)O)CC(=O)O)CC(=O)O [EDTA, ethylene diamine tetraacetate] |  |  | 25.1 | 10.7 | 8.7 | 100
3 |  | O=C([O-])CN(CCN(CC(=O)[O-])CC(=O)[O-])CC(=O)[O-].[K+].[K+].[K+].[K+] [Example K4EDTA] |  | 3.60 (+/−0.13) |  |  |  | 
